Assay results published in patent publication US7943606B2, “Compositions and methods to control abnormal cell growth” (CanCure Laboratories, LLC, priority 2005, dated 2011).
Structures can show the parent of a compound that is named as a salt. Where two headings read alike, the source gives them in different places.

What was measured:
CaOV-3 cells = assay: Viability of CaOV-3 ovarian cancer cells (MTT assay); format: cell-based, human; settings: for inhibition at 100 µM / IC50: Homo sapiens, Caov-3, 72 hours; for inhibition at 100 µM: read-out: Decrease in cell number (maximal decrease = 100%), CaOV-3
Description: (§1) To quantify cell death, around the time when significant and characteristic morphological changes took place, cells were pulse-labeled for 10 minutes with [^3H]thymidine to measure DNA activity as described elsewhere [Tomono, M. and Kiss, Z. (1995), “Ethanol enhances the stimulatory effects of insulin and insulin-like growth factor-I on DNA synthesis in NIH 3T3 fibroblasts,” Biochem. Biophys. Res. Commun. 208, 63-67]. Also, cells were collected as suspensions using trypsin, an established method in cell biology, followed by re-plating of cells in fresh tissue culture medium. If no viable cells were obtained after one week in culture, it meant that the cells at the time of re-plating were dead. Survival values obtained with untreated cells were considered 100%. For the determination of relative number of viable cells after treatments, in most cases the MTT assay was used. This calorimetric assay is based on the ability of living cells, but not dead cells, to reduce 3-(4,5-dimethyl thiazol-2-yl)-2,5-diphenyltetrazolium bromide [Carmichael, J, De Graff, W. G., Gazdar, A. F., Minna, J. D. and Mitchell, J. B. (1987), “Evaluation of tetrazolium-based semi-automated calorimetric assay: Assessment of chemosensitivity testing,” Cancer Res. 47, 936-942]. For this assay, cells were plated in 96-well plates, and the MTT assay was performed both in untreated and treated cell cultures. The MTT assay also was performed at the start of treatments to allow assessment of proliferation rates in the control and treated cell cultures.
(§2) NIH3T3, T47D, A-431, HT-29, and MEL-28 cells were cultured as indicated earlier. CaOV-3 human ovarian cancer cells were cultured in DMEM containing 10% FBS. ZR-75-1 human estrogen receptor-positive breast cancer cells were maintained in RPMI 1640 medium supplemented with 10% FBS. HTB-157 human fetal fibroblasts, MEL-24 human malignant melanoma cells, Hep G2 human hepatoblastoma cells, and CaCO-2 human colon adenocarcinoma cells were maintained in Eagles's MEM containing 10% FBS. MB-231 human estrogen receptor-negative breast cancer cells were maintained in Leibovitz's L-15 medium supplemented with 10% FBS. Cells were seeded into 96-well plates and treated at ˜70-90% confluency. Two hours prior to treatments the medium was changed for fresh 10% serum medium, and then the cells were incubated for 10 days in the absence (□) or presence of 50 μM CCDTHT ? or 100 μM CCDTHT (▪). The medium was changed and the cells were re-treated on days 3 and 6. The MTT assay was used to determine cell viability on day 10. The data, shown in FIG. 6, are the mean±std. dev. of 8 incubations in one experiment. (The experiment was repeated twice with similar results).
The MRC-5 cell line is derived from normal lung tissue of a […] fetus. MRC-5 cells were maintained and treated in Eagles Medium with Hanks' BSS containing 10% fetal bovine serum. The T47D cells were maintained and treated in RPMI 1640 medium supplemented with 0.2 IU bovine insulin and 10% fetal bovine serum. The CaOV-3 human ovarian cancer cells were cultured in Dulbecco's modified Eagle's medium containing 10% fetal bovine serum. The cells were seeded in 96-well plates either at 10,000 cells per well or 30,000 cells per well to examine the antiproliferative and cytotoxic effects of various CC compounds, respectively. The cells were incubated for 24 hours, then the medium was changed followed by the treatments of cultures 2 hours after the medium change. At this point, cell cultures seeded at 10,000 cells per well and 30,000 cells per well were 25-35% and 80-90% confluent, respectively. Incubations were continued for 72 hours followed by the MTT assay. The data, shown in TABLE 2, indicate the inhibitory concentrations of CC compounds (IC50) required for 50% decrease in the number of viable cells. These numbers are calculated from the mean of 4 incubations in one experiment (the experiment was repeated once with similar results). […]

NIH 3T3 cells = assay: Viability of NIH 3T3 normal fibroblasts (MTT assay); format: cell-based; settings: 72 hours; for cytotoxicity at 100 µM: Mus musculus, NIH3T3, read-out: Decrease in cell number (maximal decrease = 100%), NIH 3T3
Description: as §1
The NIH 3T3 (normal) mouse fibroblast, A431 human epidermoid adenocarcinoma, and MCF-7 human breast cancer cells were cultured in DMEM medium containing 10% FBS. The MEL-28 human melanoma cells were cultured in MEM medium containing 10% FBS. The HT-29 human colon adenocarcinoma cells were cultured in McCoy's 5a medium containing 10% FBS. The A549 human lung carcinoma cells were maintained in Ham's F12K medium containing 10% FBS. Cells were seeded into 96-well plates and treated at ˜70-90% confluency. Two hours before treatments the medium was changed for fresh 10% serum medium, and then the cells were incubated for 72 hours in the presence of 0-200 μM of CCompound1 (●) or CCompound3 (CCDTHT) (▴), as indicated. The MTT assay was used to determine cell viability after treatments. The values, shown in FIGS. 5A-5F and expressed as percent decrease in viability compared to the untreated control cells, are the mean±std. dev. of 8 incubations in one experiment. Similar results were obtained in another experiment.
as §2
NIH 3T3, MEL-28, MEL-24, CaOV-3, ZR-75-1, and T47D cells were cultured as described above. The OVCAR human ovarian cancer cells were cultured in DMEM containing 10% FBS. Cells were seeded into 96-well plates and used at ˜60-80% confluency. […]

OVCAR cells = assay: Viability of OVCAR ovarian cancer cells (MTT assay); format: cell-based; settings: Homo sapiens, 72 hours, read-out: Decrease in cell number (maximal decrease = 100%), OVCAR
Description: as §1
NIH 3T3, MEL-28, MEL-24, CaOV-3, ZR-75-1, and T47D cells were cultured as described above. The OVCAR human ovarian cancer cells were cultured in DMEM containing 10% FBS. Cells were seeded into 96-well plates and used at ˜60-80% confluency. Two hours before treatments the medium was changed for fresh 10% serum medium, and then the cells were incubated for 72 hours in the absence or presence of 100 μM of each of CC compounds as listed in TABLE 3. The inhibitory effects of CC compounds on cell proliferation are expressed as percent decrease compared to untreated cell cultures (the greater the number, the greater the inhibitory effect of the CC compound). […] Also, for the treatment of ovarian cancer and breast cancer, CCDTHT seems to be the best choice (although in this experiment CCompounds21-26 were not tested).

| SMILES | sensitivity to the inhibitory actions, CaOV-3 (CaOV-3 cells; 50 and 100 μM, 10 days, MTT) | inhibition at 100 µM (CaOV-3 cells) [%] | IC50 (CaOV-3 cells; 10,000 cells per well (25-35% confluent), MTT, read-out: IC50 values, Antiproliferative, CaOV-3) [µM] | IC50 (CaOV-3 cells; 30,000 cells per well (80-90% confluent), MTT, read-out: IC50 values, Cytotoxic, CaOV-3) [µM] | sensitivity compared with HaCaT cells, NIH 3T3 fibroblasts (NIH 3T3 cells; 50 and 100 μM, MTT) | cytotoxicity at 100 µM (NIH 3T3 cells) [%] | inhibition at 100 µM (OVCAR cells) [%] |
| --- | --- | --- | --- | --- | --- | --- | --- |
| CC[N+](C)(CC)CCOCc1ccc2sc3ccccc3c(=O)c2c1.[I-] [CCDTHT, N,N-diethyl-N-methyl-2-[(9-oxo-9H-thioxanthen-2-yl)methoxy]-ethanaminium iodide] | very sensitive | 84 | 38 | 39 | significantly less sensitive | 29 | 63 |
| CC[N+](CC)(CC)CCCOCc1ccc2sc3ccccc3c(=O)c2c1 [CCcompound9, N,N,N-Triethyl-3-[(9-oxo-9H-thioxanthen-2-yl)methoxy]-propane-1-aminium iodide] | – | 45 | – | – | – | 22 | 41 |
| CC[N+](C)(CC)CCCOCc1ccc2sc3ccccc3c(=O)c2c1 [CCcompound10, N,N-Diethyl-N-methyl-3-[(9-oxo-9H-thioxanthen-2-yl)methoxy]-propane-1-aminium iodide] | – | 45 | – | – | – | 21 | 38 |
| CC[N+](C)(C)CCCOCc1ccc2sc3ccccc3c(=O)c2c1 [CCcompound11, N,N-Dimethyl-N-ethyl-3-[(9-oxo-9H-thioxanthen-2-yl)methoxy]-propane-1-aminium iodide] | – | 66 | – | – | – | 21 | 62 |
| CC[NH+](CC)CCCOCc1ccc2sc3ccccc3c(=O)c2c1 [CCcompound12, 2-{[3-(Diethylamino)propoxy]meth-yl}-9H-thioxanthen-9-one hydrochloride] | – | 80 | – | – | – | 0 | 30 |
| C[N+](C)(CCO)Cc1ccc2sc3ccccc3c(=O)c2c1 [CCcompound13, 2-Hydroxy-N,N-dimethyl-N-[(9-oxo-9H-thioxanthen-2-yl)methyl]-ethanaminium bromide] | – | 53 | – | – | – | 25 | 27 |
| CC[N+](CC)(CCO)Cc1ccc2sc3ccccc3c(=O)c2c1 [CCcompound14, 2-Hydroxy-N,N-Diethyl-N-[(9-oxo-9H-thioxanthen-2-yl)methyl]-ethanaminium bromide] | – | 69 | – | – | – | 30 | 65 |
| C[N+](C)(CCCO)Cc1ccc2sc3ccccc3c(=O)c2c1 [CCcompound15, 3-Hydroxy-N,N-dimethyl-N-[(9-oxo-9H-thioxanthen-2-yl)methyl]propane-1-aminium bromide] | – | 28 | – | – | – | 11 | 26 |
| CC[N+](CC)(CCCO)Cc1ccc2sc3ccccc3c(=O)c2c1 [CCcompound16, 3-Hydroxy-N,N-diethyl-N-[(9-oxo-9H-thioxanthen-2-yl)methyl]-propane-1-aminium bromide] | – | 12 | – | – | – | 19 | 0 |
